pEC50: −log10 of the molar value.
Tests used:
[1] = target: T1, human soluble guanylate cyclase alpha 1 and beta 1 subunits (sGC) (Homo sapiens, UniProt Q02108+Q02153); assay: sGC cellular activator assay (cGMP, HTRF); assay type: cell-based; conditions: CHO cells stably expressing human sGC alpha 1/beta 1, preincubated with 40 microM ODQ; cGMP readout; assay run with and without 50% human serum, Table 2 does not say which
T1 construct: expressed in transfected cells; host or cells: Chinese hamster ovary (CHO) cells, stably transfected
T1 sequence (Q02108 1-690): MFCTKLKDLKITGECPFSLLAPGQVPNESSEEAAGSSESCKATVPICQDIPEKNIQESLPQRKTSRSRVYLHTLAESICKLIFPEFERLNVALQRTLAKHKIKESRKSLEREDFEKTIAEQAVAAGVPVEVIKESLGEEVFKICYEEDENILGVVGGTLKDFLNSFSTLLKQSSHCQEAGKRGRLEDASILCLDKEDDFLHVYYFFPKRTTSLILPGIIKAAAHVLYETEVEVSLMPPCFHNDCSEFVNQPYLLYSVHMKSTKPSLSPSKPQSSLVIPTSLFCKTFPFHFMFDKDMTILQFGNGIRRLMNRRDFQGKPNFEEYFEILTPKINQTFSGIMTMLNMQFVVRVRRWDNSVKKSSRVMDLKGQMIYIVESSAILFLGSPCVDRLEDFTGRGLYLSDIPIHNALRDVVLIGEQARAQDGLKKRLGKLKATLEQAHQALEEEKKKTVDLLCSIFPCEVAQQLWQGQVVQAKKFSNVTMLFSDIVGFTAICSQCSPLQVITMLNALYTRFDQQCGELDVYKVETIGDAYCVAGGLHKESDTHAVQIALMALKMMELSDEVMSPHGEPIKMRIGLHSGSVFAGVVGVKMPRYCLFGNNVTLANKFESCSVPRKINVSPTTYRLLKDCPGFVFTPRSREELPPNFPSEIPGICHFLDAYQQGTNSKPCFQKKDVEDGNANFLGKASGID
T1 sequence (Q02153 1-619): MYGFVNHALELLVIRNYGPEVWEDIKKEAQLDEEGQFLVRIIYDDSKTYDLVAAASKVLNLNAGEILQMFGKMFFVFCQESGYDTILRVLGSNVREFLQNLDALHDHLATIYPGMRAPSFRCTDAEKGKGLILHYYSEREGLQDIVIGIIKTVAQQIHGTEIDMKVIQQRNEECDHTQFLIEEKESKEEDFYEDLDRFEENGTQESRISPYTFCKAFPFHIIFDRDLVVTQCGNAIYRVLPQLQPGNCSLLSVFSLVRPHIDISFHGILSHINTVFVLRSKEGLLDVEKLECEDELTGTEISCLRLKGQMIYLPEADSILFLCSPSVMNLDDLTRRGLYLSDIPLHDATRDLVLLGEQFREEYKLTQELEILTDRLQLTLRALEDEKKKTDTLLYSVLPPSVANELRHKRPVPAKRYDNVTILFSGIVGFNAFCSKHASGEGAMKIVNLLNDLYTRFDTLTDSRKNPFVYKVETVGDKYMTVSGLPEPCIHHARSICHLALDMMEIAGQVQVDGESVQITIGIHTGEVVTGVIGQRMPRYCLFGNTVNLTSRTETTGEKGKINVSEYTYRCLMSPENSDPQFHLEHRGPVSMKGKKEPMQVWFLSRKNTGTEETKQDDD
Summary of the method: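 Heme-oxidized conditions: ODQ (40 microM, 1 h) pretreatment of CHO cells stably expressing human α1/β1 sGC, in buffer containing 0.1% BSA and IBMX.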

[2] = human liver microsome (HLM) metabolic stability assay; assay type: in vitro ADME; conditions: human liver microsomes; % hepatic blood flow calculated from t1/2
Summary of the method: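 Compounds at 1 uM incubated with human liver microsomes plus NADPH at 37° C., sampled at 0, 5, 15, 30 and 60 min into cold acetonitrile and quantified by LC/MS/MS. t½ from the slope of ln % remaining vs time; CLint, CLh and % Qh derived from it (n=1).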

pEC50 [1] | HLM (% Qh) [2] [% Qh] | SMILES
8.31 | <24 | COc1c(C(=O)O)cnn1-c1cccc(-c2cccc(C)c2OCc2cc(C)c3c(c2)CCN(C2CCCOC2)C3)n1 (stereo not drawn) [Compound 237]
7.46 | 89 | COc1c(C(=O)O)cnn1-c1cccc(-c2cccc(C)c2OCc2ccc3c(c2)C(C)(C)CN(C2CCOC2)C3)n1 (stereo not drawn) [Compound 217]
8.10 | <24 | COc1c(C(=O)O)cnn1-c1cccc(-c2cccc(C)c2OCc2ccc3c(c2Cl)CCN(C2CCOCC2)C3)n1 [Compound 18]
7.55 | <24 | CCOc1c(C(=O)O)cnn1-c1cccc(-c2cccc(C)c2OCc2ccc3c(c2C)CCN(C[C@@H]2CCCCO2)C3)n1 [Compound 236]
7.55 | <24 | COc1c(C(=O)O)cnn1-c1cccc(-c2cccc(C)c2OCc2ccc3c(c2)CCN(C2CCOC2)C3)n1 (stereo not drawn) [Compound 15]
8.33 | <24 | CCOc1c(C(=O)O)cnn1-c1cccc(-c2cccc(C)c2OCc2cc(C)c3c(c2)CCN([C@@H]2CCCOC2)C3)n1 [Compound 195]
7.27 | <24 | COc1c(C(=O)O)cnn1-c1cccc(-c2cccc(C)c2OCc2ccc3c(c2)CCN(CC2CC2)C3)n1 [Compound 24]
7.72 | <24 | CCOc1c(C(=O)O)cnn1-c1cccc(-c2cccc(C)c2OCc2cc(C)c3c(c2)CCN(C(C)COC)C3)n1 (stereo not drawn) [Compound 210]
7.89 | <24 | COc1c(C(=O)O)cnn1-c1cccc(-c2cccc(C)c2OCc2cc(F)c3c(c2)CCN([C@@H]2CCOC2)C3)n1 [Compound 253]
7.74 | 31 | COc1c(C(=O)O)cnn1-c1cccc(-c2cccc(C)c2OCc2ccc3c(c2Cl)CCN(C2COC2)C3)n1 [Compound 17]
7.89 | <24 | CCOc1c(C(=O)O)cnn1-c1cccc(-c2cccc(C)c2OCc2ccc3c(c2C)CCN(C(C)COC)CC3)n1 (stereo not drawn) [Compound 196]
8.38 | <24 | CCc1cc(COc2c(C)cccc2-c2cccc(-n3ncc(C(=O)O)c3OC)n2)cc2c1CN(C1CCOCC1)CC2 [Compound 248]
7.92 | 52 | CCOc1c(C(=O)O)cnn1-c1cccc(-c2cccc(C)c2OCc2ccc3c(c2C)CCN(C[C@H]2CCO2)CC3)n1 [Compound 226]
7.52 | <24 | CCOc1c(C(=O)O)cnn1-c1cccc(-c2cccc(C)c2OCc2ccc3c(c2C)CCN(C[C@H]2CCCCO2)CC3)n1 [Compound 214]
7.77 | <24 | COc1c(C(=O)O)cnn1-c1cccc(-c2cccc(C)c2OCc2ccc3c(c2Cl)CCN(CC(C)(C)C)C3)n1 [Compound 21]
8.27 | <24 | COc1c(C(=O)O)cnn1-c1cccc(-c2cccc(C)c2OCc2ccc3c(c2C)CCN(C[C@H]2CCCO2)CC3)n1 [Compound 222]
7.70 | <24 | CCOc1c(C(=O)O)cnn1-c1cccc(-c2cccc(C)c2OCc2ccc3c(c2C)CCN(CC2(F)COC2)C3)n1 [Compound 208]
8.07 | <24 | COc1c(C(=O)O)cnn1-c1cccc(-c2cccc(C)c2OCc2ccc3c(c2)CN(CC2COCCO2)C3)n1 (stereo not drawn) [Compound 247]
7.85 | 33 | COc1c(C(=O)O)cnn1-c1cccc(-c2cccc(C)c2OCc2ccc3c(c2Cl)CCN(C2CCOC2)C3)n1 (stereo not drawn) [Compound 22]
7.92 | 26 | CCOc1c(C(=O)O)cnn1-c1cccc(-c2cccc(C)c2OCc2ccc3c(c2C)CCN(C[C@@H]2CCOC2)C3)n1 [Compound 189]

pEC50 [1] | HLM (% Qh) [2] [% Qh] | SMILES
6.55 | <24 | CCOc1c(C(=O)O)cnn1-c1cccc(-c2cccc(C)c2OCc2ccc3c(c2)CCCN(C2CCCOC2)C3)n1 (stereo not drawn) [Compound 245]
7.92 | <24 | CCOc1c(C(=O)O)cnn1-c1cccc(-c2cccc(C)c2OCc2ccc3c(c2C)CCN(C[C@H]2CCOC2)C3)n1 [Compound 193]
6.68 | <24 | CCOc1c(C(=O)O)cnn1-c1cccc(-c2cccc(C)c2OCc2ccc3c(c2OC)CCN(C2COC2)C3)n1 [Compound 221]
7.85 | 44 | CCOc1c(C(=O)O)cnn1-c1cccc(-c2cccc(C)c2OCc2ccc3c(c2C)CCN(C[C@@H]2CCO2)CC3)n1 [Compound 228]
7.77 | 29 | COc1c(C(=O)O)cnn1-c1cccc(-c2cccc(C)c2OCc2ccc3c(c2Cl)CCN(CC2(C)COC2)C3)n1 [Compound 19]
8.30 | 29 | COc1c(C(=O)O)cnn1-c1cccc(-c2cccc(C)c2OCc2ccc3c(c2)CCN(CC2CC(F)(F)C2)C3)n1 [Compound 26]
8.10 | <24 | COc1c(C(=O)O)cnn1-c1cccc(-c2cccc(C)c2OCc2cc(C)c3c(c2)CCN(CC2COCCO2)C3)n1 (stereo not drawn) [Compound 240]
7.92 | <24 | COc1c(C(=O)O)cnn1-c1cccc(-c2cccc(C)c2OCc2ccc3c(c2C)CCN(C2CCOCC2)CC3)n1 [Compound 184]
7.85 | <24 | COc1c(C(=O)O)cnn1-c1cccc(-c2cccc(C)c2OCc2ccc3c(c2C)CCN(C2CCOCC2)C3)n1 [Compound 27]
8.15 | <24 | COc1c(C(=O)O)cnn1-c1cccc(-c2cccc(C)c2OCc2ccc3c(c2F)CCN([C@H]2CCOC2)C3)n1 [Compound 251]
8.29 | <24 | COc1c(C(=O)O)cnn1-c1cccc(-c2cccc(C)c2OCc2ccc3c(c2C)CCN(C2CCCOC2)C3)n1 (stereo not drawn) [Compound 238]
7.55 | <24 | COc1c(C(=O)O)cnn1-c1cccc(-c2cc(C)cc(C)c2OCc2ccc3c(c2C)CCN(C2CCOCC2)C3)n1 [Compound 180]
8.34 | <24 | CCc1cc(COc2c(C)cccc2-c2cccc(-n3ncc(C(=O)O)c3OC)n2)cc2c1CN(C1COC1)CC2 [Compound 249]
7.52 | <24 | CCOc1c(C(=O)O)cnn1-c1cccc(-c2cccc(C)c2OCc2ccc3c(c2C)CCN(CC2COCCO2)C3)n1 (stereo in doubt) [Compound 185, 1-{6-[2-(2-(S)-1-[1,4]Dioxan-2-ylmethyl-5-methyl-1,2,3,4-tetrahydro-isoquinolin-6-ylmethoxy)-3-methyl-phenyl]-pyridin-2-yl}-5-ethoxy-1H-pyrazole-4-carboxylic acid]
7.92 | <24 | COc1c(C(=O)O)cnn1-c1cccc(-c2cccc(C)c2OCc2cc(F)c3c(c2)CCN(C2CCOCC2)C3)n1 [Compound 201]
8.48 | <24 | COc1c(C(=O)O)cnn1-c1cccc(-c2cccc(C)c2OCc2ccc3c(c2C)CCN(C[C@@H]2CCOC2)C3)n1 [Compound 191]
8.35 | <24 | COc1c(C(=O)O)cnn1-c1cccc(-c2cccc(C)c2OCc2ccc3c(c2C)CCN(C[C@@H]2COCCO2)CC3)n1 [Compound 204]
8.10 | <24 | CCOc1c(C(=O)O)cnn1-c1cccc(-c2cccc(C)c2OCc2cc(C)c3c(c2)CCN(C2CCOC2)C3)n1 (stereo not drawn) [Compound 241]
8.19 | 25 | COc1c(C(=O)O)cnn1-c1cccc(-c2cccc(C)c2OCc2cc(C)c3c(c2)CCN(CC2(C)COC2)C3)n1 [Compound 239]
